Test results published in the NIST ThermoML archive (doi:10.1016/j.jct.2012.11.014).

Assay: xn = mol fraction of the nth substance listed
Conditions: 101 kPa, Liquid; for speed of sound: Frequency=2 MHz, Linear variable-path acoustic interferometer; for viscosity: Oscillating disk viscometry; for mass density: Vibrating tube method

C[NH+](C)C.O=P([O-])(O)O [trimethylammonium dihydrogen phosphate] + C[S+](C)[O-]
Conditions | mass density [kg/m3] | speed of sound [m/s] | viscosity [mPa·s]
298.15 K, x1 = 0.0264 | 1101.75 | 1494 | 2.17
298.15 K, x1 = 0.0397 | 1104.69 | 1493 | 2.25
298.15 K, x1 = 0.0708 | 1111.45 | 1492 | 2.45
298.15 K, x1 = 0.1172 | 1121.12 | 1494 | 2.74
298.15 K, x1 = 0.1673 | 1130.48 | 1496 | 3.05
298.15 K, x1 = 0.2284 | 1141.05 | 1502 | 3.41
298.15 K, x1 = 0.2934 | 1153.02 | 1510 | 3.79
298.15 K, x1 = 0.3413 | 1160.74 | 1518 | 4.07
298.15 K, x1 = 0.4012 | 1172.7 | 1527 | 4.41
298.15 K, x1 = 0.4659 | 1185.32 | 1540 | 4.77
298.15 K, x1 = 0.5306 | 1199.2 | 1554 | 5.12
298.15 K, x1 = 0.6022 | 1215.92 | 1570 | 5.51
298.15 K, x1 = 0.6728 | 1235.08 | 1587 | 5.89
298.15 K, x1 = 0.7504 | 1257.14 | 1608 | 6.3
298.15 K, x1 = 0.8137 | 1278.01 | 1624 | 6.64
298.15 K, x1 = 0.8805 | 1302.18 | 1641 | 6.99
298.15 K, x1 = 0.9643 | 1337.27 | 1662 | 7.45
298.15 K, x1 = 0.9858 | 1347.05 | 1668 | 7.56
298.15 K, x1 = 1 | 1353.61 | 1672 | 7.64
303.15 K, x1 = 0.0264 | 1099.07 | 1471 | 1.95
303.15 K, x1 = 0.0397 | 1102.31 | 1471 | 2.02
303.15 K, x1 = 0.0708 | 1109.32 | 1471 | 2.18
303.15 K, x1 = 0.1172 | 1119.09 | 1474 | 2.43
303.15 K, x1 = 0.1673 | 1128.56 | 1477 | 2.69
303.15 K, x1 = 0.2284 | 1139.84 | 1483 | 2.99
303.15 K, x1 = 0.2934 | 1151.1 | 1491 | 3.31
303.15 K, x1 = 0.3413 | 1160.68 | 1499 | 3.53
303.15 K, x1 = 0.4012 | 1171.28 | 1510 | 3.81
303.15 K, x1 = 0.4659 | 1184.46 | 1523 | 4.11
303.15 K, x1 = 0.5306 | 1198.94 | 1537 | 4.4
303.15 K, x1 = 0.6022 | 1214.84 | 1554 | 4.72
303.15 K, x1 = 0.6728 | 1233.24 | 1572 | 5.02
303.15 K, x1 = 0.7504 | 1256.51 | 1592 | 5.36
303.15 K, x1 = 0.8137 | 1276.03 | 1610 | 5.64
303.15 K, x1 = 0.8805 | 1302.06 | 1627 | 5.93
303.15 K, x1 = 0.9643 | 1336.07 | 1649 | 6.3
303.15 K, x1 = 0.9858 | 1344.82 | 1656 | 6.4
303.15 K, x1 = 1 | 1350.62 | 1660 | 6.46
308.15 K, x1 = 0.0264 | 1093.45 | 1459 | 1.78
308.15 K, x1 = 0.0397 | 1096.91 | 1460 | 1.83
308.15 K, x1 = 0.0708 | 1104.49 | 1461 | 1.97
308.15 K, x1 = 0.1172 | 1114.06 | 1464 | 2.18
308.15 K, x1 = 0.1673 | 1124.47 | 1468 | 2.41
308.15 K, x1 = 0.2284 | 1136.12 | 1475 | 2.67
308.15 K, x1 = 0.2934 | 1147.36 | 1485 | 2.94
308.15 K, x1 = 0.3413 | 1157.63 | 1492 | 3.13
308.15 K, x1 = 0.4012 | 1167.76 | 1504 | 3.37
308.15 K, x1 = 0.4659 | 1181.31 | 1518 | 3.62
308.15 K, x1 = 0.5306 | 1196.24 | 1531 | 3.86
308.15 K, x1 = 0.6022 | 1214.48 | 1548 | 4.13
308.15 K, x1 = 0.6728 | 1232.06 | 1567 | 4.38
308.15 K, x1 = 0.7504 | 1256.27 | 1588 | 4.67
308.15 K, x1 = 0.8137 | 1276.94 | 1605 | 4.91
308.15 K, x1 = 0.8805 | 1301.06 | 1625 | 5.16
308.15 K, x1 = 0.9643 | 1334.09 | 1649 | 5.47
308.15 K, x1 = 0.9858 | 1342.26 | 1656 | 5.56
308.15 K, x1 = 1 | 1347.59 | 1661 | 5.61
313.15 K, x1 = 0.0264 | 1089.15 | 1442 | 1.65
313.15 K, x1 = 0.0397 | 1092.77 | 1443 | 1.7
313.15 K, x1 = 0.0708 | 1100.69 | 1444 | 1.83
313.15 K, x1 = 0.1172 | 1109.86 | 1449 | 2.02
313.15 K, x1 = 0.1673 | 1121.53 | 1452 | 2.22
313.15 K, x1 = 0.2284 | 1134.54 | 1460 | 2.45
313.15 K, x1 = 0.2934 | 1145.27 | 1471 | 2.69
313.15 K, x1 = 0.3413 | 1156.54 | 1479 | 2.86
313.15 K, x1 = 0.4012 | 1167.52 | 1493 | 3.07
313.15 K, x1 = 0.4659 | 1181.73 | 1507 | 3.3
313.15 K, x1 = 0.5306 | 1196.14 | 1522 | 3.51
313.15 K, x1 = 0.6022 | 1214.06 | 1540 | 3.75
313.15 K, x1 = 0.6728 | 1232.95 | 1560 | 3.98
313.15 K, x1 = 0.7504 | 1256.04 | 1581 | 4.24
313.15 K, x1 = 0.8137 | 1276.61 | 1601 | 4.44
313.15 K, x1 = 0.8805 | 1299.14 | 1623 | 4.67
313.15 K, x1 = 0.9643 | 1331.48 | 1651.4 | 4.95
313.15 K, x1 = 0.9858 | 1339.35 | 1659 | 5.02
313.15 K, x1 = 1 | 1344.52 | 1664 | 5.07
